From patent publication US20030134779A1, “Method and composition for treatment and/or prevention of antibiotic-resistant microorganism infections” (priority 2002, published 2003) come the findings set out here.

Holding throughout (format): cell-based, Staphylococcus aureus
For one assay, the system named is S. aureus ATCC 25923. The assay is described as follows: Checkerboard MICs and FIC index, penicillin with bovine LF. As to the method:
(§1) The MICs were determined by both macrodilution (1 ml/tube) and microdilution (100 μl/well) in sterile 96 well microtiter plates (International Nunc, Napierville, Ill.) techniques in three separate experiments according to the National Committee for Clinical Laboratory Standards (1992 and 1999) in three separate experiments. Serial 2-fold dilutions in MHB of LF, LFC, antibiotic or combination of LF or LFC with antibiotic were inoculated with an overnight culture at a final inoculum of 10^6 cfu/ml in MHB. Effect of LF combination with antibiotic on MICs were determined by adding 0.5 mg or 1 mg/ml of LF to each antibiotic dilution. The MIC was defined as the lowest concentration of drug (highest dilution) that caused a complete inhibition of bacterial growth after an incubation of 18 h. Effect of LF or LFC combination with antibiotic on MIC was also determined by checkerboard method using 96 well microtiter plates. Each antibiotic dilution (50 μl) was serially added to the wells in vertical rows starting from the top (lower dilution) to the bottom. Lactoferrin or LFC (50 μl) were added to 50 μl of each antibiotic dilution and serially diluted starting at the left (lower dilution) to the right. After inoculation, the final concentration of antibiotic from top to bottom were 32 to 8, 2 to 0.5, 0.5 to 0.125 μg/ml for penicillin, cefazolin and neomycin, respectively. From left to right, the concentration of LF or LFC were 25 to 0.0244 mg/ml or 256 to 0.5 μg/ml respectively in a final volume of 100 μl/well. The microplate's were incubated at 37° C. for 24 h. Bacterial growth was measured optically at 540 nm using Spectra Max 250 Microplate Spectrophotometer System of Molecular Device (Fisher Scientific, Ottawa, Canada). Tubes were incubated at 37° C. for 18 h and bacterial growth was measured by visual examination and optically at 540 nm using a spectrophotometer (Philips PU 8800; Pye Unican Ltd, Cambridge, UK). The fractional inhibitory concentration (FIC) was calculated as described by Eliopoulos and Moellering (1991).
(§2) FIC antibiotic A=MICantibiotic A (in the presence of antibiotic B)/MICantibiotic A alone. FIC Index=FICantibiotic A+FICantibiotic B
(§3) The effects of the antibiotics were considered to be synergistic or indifferent when FIC Index was<1 or>1, respectively.

Another assay has as its system S. aureus PC-1. The description is as above. Conditions: by combination with bovine LF. As to the method: as §1, §2, §3
The subject of assay [1] is S. aureus SHY97-4320. Described as above. The conditions noted are these: for Decrease (of MIC of penicillin): by combination with bovine LF. As to the method: as §1, §2, §3
A further assay deals with S. aureus SHY97-3906. The description is as above. Conditions: for Decrease (of MIC of penicillin): by combination with bovine LF. As to the method:
as §1, §2, §3

A further assay concerns S. aureus 2076. The experiment in a line: MIC of penicillin G alone or with bovine LF, macrodilution. Conditions: strain β-lactamase +A, read-out: MICs of penicillin G.
Source text: (§4) Staphylococcus aureus strains ATCC 25923 and 6538 and Escherichia coli ATCC 25922 were obtained from the American Type Culture Collection. Eight bovine mastitis clinical isolates of S. aureus (SHY97-3906, -3923, -4085 -4242, -4320 and -4343, RFT-1 and RFT-5) and one isolate of E. coli SHY97-3923-2 and one isolate of Kiebsiella pneumoniae SHY99-723-1 were kindly provided by the Laboratoire Provincial de Pathologie Animale of St-Hyacinthe and of Rock-Forest (Quebec, Canada), respectively. Nine β-lactam antibiotics resistant S. aureus strains (PC-1, NCTC 9789, 2076, 22260, ST79/741, 3804, RN9, FAR8, and FAR10) were obtained from Vanderbilt University School of Medicine (Nashville, Tenn., USA). All the culture media were from Difco Laboratories (Detroit, Mich.). Bacteria from frozen stock at −80° C. were streaked onto tryptic soy agar plates suplemented with 5% of defibrinated sheep blood (Quelab, Montreal, QC, Canada) or Brain Heart infusion agar plates. Plates were then incubated for 16 to 24 h at 37° C. For most experiments, the strains were subcultured onto Mueller Hinton agar plates (MHA) or broth (MHB) for an additional 16-20 h. Aqueous solutions of the tested products were added by filtration through a sterile filter assembly (pore size 0.2 μm, Fisher, Ottawa, Ontario).
as §1

In another assay the test system is S. aureus RN 9. The description is as above. Conditions: strain β-lactamase +C; for MIC: Staphylococcus aureus.
Source text: as §4, §1

Another assay concerns S. aureus 22260. The assay is described as above. The conditions noted are these: strain β-lactamase +B, read-out: MICs of penicillin G.
Source text: as §4, §1

For assay [2], the system named is S. aureus SHY97-4320. The experiment in a line: Cell morphology by transmission electron microscopy. As to the method:
Microorganisms were prepared for transmission electron microscopy by fixation with glutaraldehyde followed by ferritin labelling. This method allows good- preservation of capsular material. Briefly, bacterial cells grown in the presence or absence of antibiotics were fixed in cacodylate buffer (0.1 M, pH 7.0) containing 5% (v/v) glutaraldehyde, for 2 h at 20° C. Fixed microorganims were suspended in cacodylate buffer and allowed to react with the polycationic ferritin (Sigma Chemicals, St-Louis, Mo.; final concentration 1.0 mg/ml) for 30 min at 20° C. The reaction was slowed down by 10-fold dilution with buffer, and the microorganisms were centrifuged and washed three times in cacodylate buffer. Bacterial cells were then immobilized in 4% (w/v) agar, washed 5 times in cacodylate buffer and post-fixed with 2% (w/v) osmium tetroxide for 2 h. Washings were repeated as above, and the samples dehydrated in a graded series of acetone washes. Samples were then washed twice in propylene oxide and embedded in Spurr low-viscosity resin. Thin sections were post-stained with uranyl acetate and lead citrate and examined with an electron microscope (Philips 201) at an accelerating voltage of 60 kV.

Like-named read-outs stand apart in the source and are kept apart here.

Turning to `CC1(C)S[C@@H]2[C@H](NC(=O)Cc3ccccc3)C(=O)N2[C@H]1C(=O)O` [penicillin G, Penicillin G], the MIC in the assay with S. aureus ATCC 25923 (Staphylococcus aureus, ATCC25923, in combination with bovine LF, checkerboard) is 0.0156 µg/mL; in the assay with S. aureus SHY97-4320 [1] (Staphylococcus aureus, SHY974320, in combination with bovine LF, checkerboard), 16 µg/mL; in the assay with S. aureus SHY97-3906 (Staphylococcus aureus, SHY973906, in combination with bovine LF, checkerboard), 0.125 µg/mL; in the assay with S. aureus 2076 (Staphylococcus aureus, 2076, +0.5 mg/ml LF), 0.25 µg/mL; in the assay on S. aureus 2076 (Staphylococcus aureus, 2076, +1 mg/ml LF), 0.25 µg/mL; in the assay with S. aureus 2076 (Staphylococcus aureus, 2076, Alone) it was 0.5 µg/mL. In addition, the MIC is 128 µg/mL in the assay on S. aureus RN 9 (RN9, read-out: MICs of penicillin G, Alone); 64 µg/mL in the assay on S. aureus RN 9 (RN9, +0.5 mg/ml LF, read-out: MICs of penicillin G); 16 µg/mL with S. aureus 22260 (Staphylococcus aureus, 22260, +0.5 mg/ml LF); 16 µg/mL with S. aureus 22260 (Staphylococcus aureus, 22260, +1 mg/ml LF); 32 µg/mL in the assay on S. aureus 22260 (Staphylococcus aureus, 22260, Alone). For the same compound, the “Decrease (of MIC of penicillin)” value with S. aureus ATCC 25923 (by combination with bovine LF) is reported as 2 fold; with S. aureus PC-1 (listed as Penicillin) it was “≧2 fold”; with S. aureus PC-1 (listed as penicillin), at least 2 fold; in the assay with S. aureus SHY97-4320 [1] (listed as Penicillin), 4 fold; in the assay with S. aureus SHY97-4320 [1] (listed as penicillin), “four fold”; in the assay on S. aureus SHY97-3906 (listed as Penicillin) it was 4 fold. For the same compound, in the assay on S. aureus SHY97-3906 (listed as penicillin), the “Decrease (of MIC of penicillin)” value is reported as “four fold”. In addition, the “MICs of penicillin G” value in the assay on S. aureus RN 9 (+1 mg/ml LF) is 64 µg/mL. The cell morphology entry in the assay on S. aureus SHY97-4320 [2] (penicillin G 8 μg/ml alone, 4-h) is listed as “no visible effect”; with S. aureus SHY97-4320 [2] (penicillin G 8 μg/ml combined with LF 1 mg/ml), “morphology changes were similar to that observed in the susceptible strain”.
